Results taken from patent publication US8613927B2, “High affinity human antibodies to human nerve growth factor” (Regeneron Pharmaceuticals, Inc., priority 2007, dated 2013).
pKd: −log10 of the molar value.

Tests used:
mouse NGF (mNGF) = mouse NGF (mNGF) (Mus musculus, UniProt P01139); assay: BIACORE binding affinity to mouse NGF
Method: Antigen binding affinities of the antibodies for human NGF were determined by surface kinetics using a real-time biosensor surface plasmon resonance assay (BIACORE™). Antibodies were captured on either a goat, anti-human or anti-mouse IgG polyclonal antibody surface created by direct amine coupling of the capture antibody to a BIACORE™ chip. Various concentrations of human NGF were injected over the captured antibody surfaces while the association of the antigen to the antibody and the dissociation of the bound complex were monitored in real time. Kinetic analysis was performed to obtain the equilibrium dissociation constant (KD) and dissociation rate constant, and the latter was used to calculate the antigen/antibody complex dissociation t1/2 (Table 1).
Human NGF (NGF) is highly homologous in amino acid sequence to mouse NGF (mNGF) and rat NGF (rNGF) with about 90% identity. The binding affinities of the antibodies to both mNGF and rNGF were determined as described above.
The binding affinity of selected purified anti-NGF antibodies to mNGF and rNGF were also determined (Table 6).

C57BL/6 mice = assay: Post-operative incision pain model, thermal hyperalgesia in Hargreaves' test; type: in vivo, mouse; conditions: for mean percent change from Hargreaves baseline: Table 14; for Hargreaves' test result (thermal hyperalgesia): Table 16
Method: Post-operative incision pain model. […] For the plantar incision surgery, C57BL/6 mice under isoflurane received an incision through skin, fascia and then isolating the underlying flexor muscle and bisecting vertically. After suture and recovery, the mice were tested for thermal hyperalgesia in the Hargreaves' test and for guarding behavior in the weight bearing test (model 600, IITC Life Science) for 5 days.
Thermal hyperalgesia was studied in the Hargreaves' test and mechanical allodynia was tested in the von Frey test. In this latter test, mice were tested after being acclimated for 2-3 hours for 4 days in an apparatus with a wire mesh floor. The test was performed by applying, in ascending order, a series of von Frey hairs through the wire mesh onto the plantar surface of the hind paw with the incision. A response was considered positive if the paw was raised from the platform in response to application of the filament. Starting from the thinnest hair, each von Frey filament was applied up to five times until a response was observed.

mouse NGF (mNGF), sequence (P01139 122-241): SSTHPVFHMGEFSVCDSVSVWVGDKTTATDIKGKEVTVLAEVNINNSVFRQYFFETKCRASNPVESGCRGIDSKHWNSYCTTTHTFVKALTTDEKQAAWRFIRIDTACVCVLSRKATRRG

tanezumab [RN624]
pKd (mouse NGF (mNGF); Table 5): 11.85
pKd (mouse NGF (mNGF); Table 6, selected purified antibodies): 11.85
reduction of post-operative pain vs vehicle, Hargreaves' test (C57BL/6 mice; 10 mg/kg s.c. 1 hr prior to incision, p<0.001-0.05): significantly reduced the post-operative pain
reversal of thermal hyperalgesia (C57BL/6 mice; 25 mg/kg i.p. on day 1 post-surgery, by 72 hours, p<0.001-0.01): return to baseline was not observed
mean percent change from Hargreaves baseline (C57BL/6 mice; 10 mg/kg s.c. 1 hr prior to incision, Baseline, ±SEM): 0.00 ± 0.0%
mean percent change from Hargreaves baseline (C57BL/6 mice; 10 mg/kg s.c. pre-incision, Day 1 after surgery): −62.5 ± 10.6%
mean percent change from Hargreaves baseline (C57BL/6 mice; 10 mg/kg s.c. pre-incision, Day 2 after surgery): −55.2 ± 9.4%
mean percent change from Hargreaves baseline (C57BL/6 mice; 10 mg/kg s.c. pre-incision, Day 3 after surgery): −5.3 ± 12.1%
mean percent change from Hargreaves baseline (C57BL/6 mice; 10 mg/kg s.c. pre-incision, Day 4 after surgery): −6.4 ± 8.7%
mean percent change from Hargreaves baseline (C57BL/6 mice; 10 mg/kg s.c. pre-incision, Day 5 after surgery): −5.3 ± 5.6%
Hargreaves' test result (thermal hyperalgesia) (C57BL/6 mice; 25 mg/kg i.p. on day 1 post-surgery, Baseline): 0.0 ± 0.0
Hargreaves' test result (thermal hyperalgesia) (C57BL/6 mice; 25 mg/kg i.p., 6 hr after treatment): −68.1 ± 5.2
Hargreaves' test result (thermal hyperalgesia) (C57BL/6 mice; 25 mg/kg i.p., 23 hr after treatment): −40.5 ± 8.9
Hargreaves' test result (thermal hyperalgesia) (C57BL/6 mice; 25 mg/kg i.p., 47 hr after treatment): −37.6 ± 7.2
Hargreaves' test result (thermal hyperalgesia) (C57BL/6 mice; 25 mg/kg i.p., 72 hr after treatment): −47.2 ± 8.0
Hargreaves' test result (thermal hyperalgesia) (C57BL/6 mice; 25 mg/kg i.p., Day 1 (post-surgery, before injection)): −74.7 ± 4.3
